Reference: publication PMC9823088, “The oral selective estrogen receptor degrader GDC-0810 (ARN-810) in postmenopausal women with hormone receptor-positive HER2-negative (HR + /HER2 −) advanced/metastatic breast cancer” (Breast Cancer Research and Treatment, 2022)

Test: Safety: adverse events (NCI-CTCAE v4.0), DLT, MTD, RP2D
Format: in vivo
Description: AEs were assessed using the National Cancer Institute-Common Terminology Criteria for Adverse Events (NCI-CTCAE v4.0). […] The protocol-defined GDC-0810-specific AEs of special interest (AESI) which were non-serious adverse events that required expedited reporting to the sponsor, included DLTs occurring during the DLT assessment window, grade ≥ 2 vomiting/diarrhea, grade ≥ 3 nausea, grade ≥ 2 thromboembolic events, grade ≥ 2 vaginal or uterine hemorrhage, and grade ≥ 3 elevation of ALT or AST.
Analyses of safety, pharmacokinetics, anti-tumor activity, and data from the FES-PET imaging correlative studies were planned. Confirmatory inferential analyses and imputation for missing data were not planned due to the exploratory nature of this study. Descriptive statistics were used to summarize patient data. The number of patients to be enrolled was dependent upon the observed safety and pharmacokinetic profile during dose escalations. The safety- and efficacy-evaluable population included patients who received at least one dose of the study drug. Safety was assessed through summaries of DLTs, AEs, changes in select laboratory test results, vital signs, ECGs, and changes in endometrial thickness. Objective response (with confirmation) and clinical benefit rates (CBR) were derived per RECIST v1.1 and summarized by dose level and cohort. […]
polyps, endometrial cancer, endometrial hyperplasia, and other significant disorders); any […]
disease or chronic diarrhea, short bowel syndrome, or upper gastrointestinal surgery; known human immunodeficiency virus (HIV) infection; known clinically significant history of liver disease; major surgery within 4 weeks prior to enrollment; or radiation therapy within 2 weeks […]
There were phase-specific exclusion criteria as well. In phase Ib, cohort C1 excluded patients with a history of venous thromboembolic event requiring therapeutic anticoagulation or vaginal bleeding within 2 months prior to enrollment. In phase IIa, cohorts A1 and A2 excluded patients with >1 chemotherapy in the advanced/metastatic disease setting. In phase IIa, cohort B1 excluded patients with >1 prior AI in the advanced/metastatic disease setting or prior […]
In phase IIa, cohort B2 excluded patients with >1 prior AI or >1 prior chemotherapy in the advanced/metastatic disease setting.
Patients in phase Ia in dose escalation received oral doses of GDC-0810 during 28-day cycles given once daily (QD) or twice-daily (BID), with fasting and without fasting, and with a single dose given on day −7 leading into cycle 1. The starting dose in the first cohort was 100 mg per day based on preclinical studies. Dose escalation to 200 mg and by 200 mg increments in successive cohorts occurred in the absence of dose-limiting toxicities (DLTs), or conditionally in the presence of DLTs. A DLT was defined as any adverse event (AE) occurring during the DLT window deemed by the investigator or sponsor to be related to the study drug unless they were clearly related to disease progression or other cause; DLT incidences were evaluated from day […]
patients in a dose cohort experienced a DLT, 3 additional patients were assigned to that dose; dose escalation to the next level proceeded if DLTs were experienced by ≤1 patient out of 6. If ≥2 patients experienced DLTs at a given dose, a lower dose was to be declared the maximum […]
Phase Ib was a dose-escalation study of GDC-0810 starting at 400 mg QD, as […]
Phase IIa explored the recommended phase 2 dose (RP2D) from phase Ia. All patients received GDC-0810 600 mg under non-fasting conditions. Cohorts A1 and A2 enrolled patients with tumors harboring ESR1 mutations with no prior fulvestrant use in cohort A1 while prior fulvestrant use was allowed in cohort A2. Cohorts B1 and B2 enrolled patients whose disease had progressed and who may have had one or no AI therapy; there was no prior fulvestrant use in cohort B1 while prior fulvestrant use was allowed in cohort B2.
Patients in all three study phases continued treatment until unacceptable toxicity, disease

[1] = phase 1a (n=41), grade 3, cohort 200 mg
[2] = phase 1a (n=41), grade 3, cohort 300 mg, BID
[3] = phase 1a (n=41), grade 3, cohort 600 mg
[4] = phase 1a (n=41), grade 3, cohort 800 mg, non-fasting
[5] = phase 1a (n=41), grade 4, cohort 600 mg, non-fasting
[6] = phase 1a (n=41), grade 5, cohort 600 mg, non-fasting
[7] = phase IIa A1, 600 mg QD, n = 19
[8] = phase IIa A2, 600 mg QD, n = 10
[9] = phase IIa B1, 600 mg QD, n = 53
[10] = phase IIa B2, 600 mg QD, n = 19

Structure (SMILES): CC/C(=C(/c1ccc(/C=C/C(=O)O)cc1)c1ccc2[nH]ncc2c1)c1ccc(F)cc1Cl [GDC-0810]
- tolerability based on frequency of gastrointestinal AEs (800 mg daily): intolerable
- patients who reported SAEs regardless of attribution (across all 3 phases): 33 patients
- AST increased, Grades 3–5 (all 3 study phases, N = 152): 4 (3) n (%)
- AST increased, all grades (all 3 study phases, N = 152): 26 (17) n (%)
- Abdominal pain, Grades 3–5 (all 3 study phases, N = 152): 3 (2) n (%)
- Abdominal pain, all grades (all 3 study phases, N = 152): 28 (18) n (%)
- Anemia, Grades 3–5 (all 3 study phases, N = 152): 4 (3) n (%)
- Anemia, all grades (all 3 study phases, N = 152): 34 (22) n (%)
- Arthralgia, Grades 3–5 (all 3 study phases, N = 152): 0 n (%)
- Arthralgia, all grades (all 3 study phases, N = 152): 32 (21) n (%)
- Constipation, Grades 3–5 (all 3 study phases, N = 152): 1 (1) n (%)
- Constipation, all grades (all 3 study phases, N = 152): 42 (28) n (%)
- Cough, Grades 3–5 (all 3 study phases, N = 152): 1 (1) n (%)
- Cough, all grades (all 3 study phases, N = 152): 30 (20) n (%)
- Decreased appetite, Grades 3–5 (all 3 study phases, N = 152): 0 n (%)
- Decreased appetite, all grades (all 3 study phases, N = 152): 38 (25) n (%)
- Diarrhea, Grades 3–5 (all 3 study phases, N = 152): 7 (5) n (%)
- Diarrhea, all grades (all 3 study phases, N = 152): 95 (63) n (%)
- Dyspepsia, Grades 3–5 (all 3 study phases, N = 152): 1 (1) n (%)
- Dyspepsia, all grades (all 3 study phases, N = 152): 30 (20) n (%)
- Fatigue, Grades 3–5 (all 3 study phases, N = 152): 6 (4) n (%)
- Fatigue, all grades (all 3 study phases, N = 152): 77 (51) n (%)
- Flatulence, Grades 3–5 (all 3 study phases, N = 152): 0 n (%)
- Flatulence, all grades (all 3 study phases, N = 152): 29 (19) n (%)
- Nausea, Grades 3–5 (all 3 study phases, N = 152): 1 (1) n (%)
- Nausea, all grades (all 3 study phases, N = 152): 82 (54) n (%)
- Vomiting, Grades 3–5 (all 3 study phases, N = 152): 4 (3) n (%)
- Vomiting, all grades (all 3 study phases, N = 152): 47 (31) n (%)
- patients experiencing ≥ 1 AE regardless of causality (all who received the study drug): All patients
- dose-limiting toxicity (DLT) (dose escalation, 35-day DLT window, diarrhea, 800-mg QD): one and a DLT
- ER agonist effects on the lipid profiles of patients (in vivo): no clinically significant ER agonist effects
- patients who reported SAEs regardless of attribution (phase 1a): 13 n
- SAE Pneumothorax (phase 1a (n=41), grade 1, cohort 800 mg, non-fasting): 1 (2%) n (%)
- SAE Presyncope (phase 1a (n=41), grade 2, cohort 300 mg, BID): 1 (2%) n (%)
- SAE Urinary tract infection (phase 1a (n=41), grade 3, cohort 100 mg): 1 (2%) n (%)
- SAE Abdominal pain [1]: 1 (2%) n (%)
- SAE Nausea [1]: 1 (2%) n (%)
- SAE Vomiting [1]: 1 (2%) n (%)
- SAE Skin infection [2]: 1 (2%) n (%)
- SAE Venous thrombosis [2]: 1 (2%) n (%)
- SAE Anemia [3]: 1 (2%) n (%)
- SAE Ascites [3]: 1 (2%) n (%)
- SAE Adrenal insufficiency [4]: 1 (2%) n (%)
- SAE Fatigue [4]: 1 (2%) n (%)
- SAE Pulmonary embolism (phase 1a (n=41), grade 4, cohort 300 mg, BID, related to study drug): 1 (2%) n (%)
- SAE Thrombocytopenia (phase 1a (n=41), grade 4, cohort 600 mg): 1 (2%) n (%)
- SAE Cardiac arrest [5]: 1 (2%) n (%)
- SAE Hyponatremia [5]: 1 (2%) n (%)
- SAE Cardiac failure [6]: 1 (2%) n (%)
- SAE Metastases to peritoneum [6]: 1 (2%) n (%)
- SAE Blood bilirubin increased (phase 1a (n=41), grade 5, cohort 800 mg): 1 (2%) n (%)
- patients who reported SAEs regardless of attribution (phase 1b): 3 n
- patients who reported SAEs regardless of attribution (phase 2a): 17 n
- deaths (phase IIa): 3 deaths
- AST increased, Grades 3–5 [7]: 0 n (%)
- AST increased, all grades [7]: 1 (5) n (%)
- Abdominal pain, Grades 3–5 [7]: 1 (5) n (%)
- Abdominal pain, all grades [7]: 3 (16) n (%)
- Anemia, Grades 3–5 [7]: 0 n (%)
- Anemia, all grades [7]: 2 (11) n (%)
- Arthralgia, Grades 3–5 [7]: 0 n (%)
- Arthralgia, all grades [7]: 4 (21) n (%)
- Constipation, Grades 3–5 [7]: 0 n (%)
- Constipation, all grades [7]: 2 (11) n (%)
- Cough, Grades 3–5 [7]: 0 n (%)
- Cough, all grades [7]: 2 (11) n (%)
- Decreased appetite, Grades 3–5 [7]: 0 n (%)
- Decreased appetite, all grades [7]: 6 (32) n (%)
- Diarrhea, Grades 3–5 [7]: 0 n (%)
- Diarrhea, all grades [7]: 10 (53) n (%)
- Dyspepsia, Grades 3–5 [7]: 0 n (%)
- Dyspepsia, all grades [7]: 6 (31) n (%)
- Fatigue, Grades 3–5 [7]: 0 n (%)
- Fatigue, all grades [7]: 8 (42) n (%)
- Flatulence, Grades 3–5 [7]: 0 n (%)
- Flatulence, all grades [7]: 4 (21) n (%)
- Nausea, Grades 3–5 [7]: 0 n (%)
- Nausea, all grades [7]: 8 (42) n (%)
- Vomiting, Grades 3–5 [7]: 2 (11) n (%)
- Vomiting, all grades [7]: 8 (42) n (%)
- AST increased, Grades 3–5 [8]: 0 n (%)
- AST increased, all grades [8]: 2 (20) n (%)
- Abdominal pain, Grades 3–5 [8]: 0 n (%)
- Abdominal pain, all grades [8]: 0 n (%)
- Anemia, Grades 3–5 [8]: 1 (10) n (%)
- Anemia, all grades [8]: 2 (20) n (%)
- Arthralgia, Grades 3–5 [8]: 0 n (%)
- Arthralgia, all grades [8]: 0 n (%)
- Constipation, Grades 3–5 [8]: 0 n (%)
- Constipation, all grades [8]: 0 n (%)
- Cough, Grades 3–5 [8]: 0 n (%)
- Cough, all grades [8]: 1 (10) n (%)
- Decreased appetite, Grades 3–5 [8]: 0 n (%)
- Decreased appetite, all grades [8]: 3 (30) n (%)
- Diarrhea, Grades 3–5 [8]: 1 (10) n (%)
- Diarrhea, all grades [8]: 5 (50) n (%)
- Dyspepsia, Grades 3–5 [8]: 1 (10) n (%)
- Dyspepsia, all grades [8]: 2 (20) n (%)
- Fatigue, Grades 3–5 [8]: 0 n (%)
- Fatigue, all grades [8]: 2 (20) n (%)
- Flatulence, Grades 3–5 [8]: 0 n (%)
- Flatulence, all grades [8]: 0 n (%)
- Nausea, Grades 3–5 [8]: 0 n (%)
- Nausea, all grades [8]: 6 (60) n (%)
- Vomiting, Grades 3–5 [8]: 0 n (%)
- Vomiting, all grades [8]: 4 (40) n (%)
- AST increased, Grades 3–5 [9]: 2 (4) n (%)
- AST increased, all grades [9]: 4 (8) n (%)
- Abdominal pain, Grades 3–5 [9]: 1 (2) n (%)
- Abdominal pain, all grades [9]: 10 (19) n (%)
- Anemia, Grades 3–5 [9]: 1 (2) n (%)
- Anemia, all grades [9]: 6 (11) n (%)
- Arthralgia, Grades 3–5 [9]: 0 n (%)
- Arthralgia, all grades [9]: 14 (26) n (%)
- Constipation, Grades 3–5 [9]: 1 (2) n (%)
- Constipation, all grades [9]: 16 (30) n (%)
- Cough, Grades 3–5 [9]: 1 (2) n (%)
- Cough, all grades [9]: 8 (15) n (%)
- Decreased appetite, Grades 3–5 [9]: 0 n (%)
- Decreased appetite, all grades [9]: 9 (17) n (%)
- Diarrhea, Grades 3–5 [9]: 5 (9) n (%)
- Diarrhea, all grades [9]: 29 (55) n (%)
- Dyspepsia, Grades 3–5 [9]: 0 n (%)
- Dyspepsia, all grades [9]: 6 (11) n (%)
- Fatigue, Grades 3–5 [9]: 2 (4) n (%)
- Fatigue, all grades [9]: 27 (51) n (%)
- Flatulence, Grades 3–5 [9]: 0 n (%)
- Flatulence, all grades [9]: 13 (25) n (%)
- Nausea, Grades 3–5 [9]: 0 n (%)
- Nausea, all grades [9]: 24 (45) n (%)
- Vomiting, Grades 3–5 [9]: 1 (2) n (%)
- Vomiting, all grades [9]: 14 (26) n (%)
- AST increased, Grades 3–5 [10]: 0 n (%)
- AST increased, all grades [10]: 1 (5) n (%)
- Abdominal pain, Grades 3–5 [10]: 0 n (%)
- Abdominal pain, all grades [10]: 1 (5) n (%)
- Anemia, Grades 3–5 [10]: 1 (5) n (%)
- Anemia, all grades [10]: 4 (21) n (%)
- Arthralgia, Grades 3–5 [10]: 0 n (%)
- Arthralgia, all grades [10]: 0 n (%)
